Experimental data published in US5731334A, “Method for treating cancer using taxoid onium salt prodrugs” (priority 1995, dated 1998).

Key:
[1] = tested on: PC-3 prostate carcinoma tumor xenograft; assay: PC-3 prostate tumor xenograft in nude mice
Description: (§3) Athymic nude mice were purchased from Harlan-Sprague-Dawley. The animals were housed in microisolated cases under positive air pressure and all manipulations and drug treatments were performed in a laminar flow cabinet. Tumor cells were grown under the above tissue culture conditions. Cell suspensions in RPMI medium were injected S./C. Treatment was started one day after inoculation by i.p. injection of 400 μl drug solutions. Tumors were measured 3 times weekly in two dimensions, using calipers and tumor volume as calculated using the formula (V=w^2 ×L×(3.142).
(§4) The tumor model was generated from an ATTC PC-3 prostate carcinoma cell line that was maintained under standard cell proliferation conditions, viz. 37° C., 5% carbon dioxide in sterile air. Each cohort was comprised of eight randomly chosen female athymic nude mice, for a total population size of twenty four. Hemocytometer counted cells, suspended in Hanks mediun (Gibco, Grand Island N.Y.) were implanted S.C. (10^6 cells in 0.4 mL per mouse). Solid tumor growth was measured on each third day. Equimolar amounts of the test compounds (1.0 mM, 400 μL) were injected i.p. on days 1, 3, 5, 7, 9, and 11 using the following media:
(§5) (.smallcircle.): Control, 5% dextrose in 5× distilled water (5 DW)
(§6) (Δ): Taxol (18.0 mg/kg of animal weight or approximately 1.260 mg/m^2) suspended in Cremaphor/D5W
(§7) Inferences about efficacy were drawn by ANOVA followed by protected t-test. […] Data shown as mean value with standard error.

[2] = tested on: SK-Mel-28 melanoma cells; assay: XTT dye binding cytotoxicity assay, SK-Mel-28; format: cell-based; conditions: Homo sapiens; SK-Mel-28, melanoma; 72 h; read-out: IC50
Description: (§1) All cell lines described herein were obtained from the ATCC and maintained in media formulations as recommended by the supplier. The cell lines were tested for mycoplasma contamination prior to incubation at 37° C. in 5% carbon dioxide. Normal human dermal fibroblasts, peripheral blood lymphoblasts and mammary epithelial cells were obtained from Clonogenic Cor., San Diego, Calif. and were maintained under the above incubation conditions in special media provided by the supplier.
(§2) Antiproliferative activities of the onium salts were determined using the XTT dye binding assay. Cells were harvested with trypsin/EDTA (Irvine Scientific), washed, resuspended in the appropriate medium, and counted in a hemocytometer using Trypan Blue to determine viability. Then 10^4 cells/well were added to 96 well microtiter plates and incubated for 24 hours before addition of drug at concentrations in the range of 10^-4 to 10^-13 molar by direct addition from DMSO solutions. After 72 hours, XTT binding dye was added and incubation was continued for 4 hours. The inhibition of cell proliferation was quantified using a Molecular Devices Microplate Reader. The absorbance of XTT was measured at […]. The concentration of drug which inhibited growth of cells by 50% was calculated from duplicated determinations.

[3] = Stability in water, assay medium and storage solution; format: physicochemical
Text: used and differing ultraviolet absorption maxima between the prodrug and the drug, the stability was easily assayed using UV detection. In all the ensuing studies, the only degradation products detected were the taxoids and the pyridinone that results from the hydrolysis of the onium salts. In water, these compounds show surprising stability for up to weeks depending upon the storage conditions. […] The fraction of ethyl acetated extractable material was between 18 and 23% for all onium salts and 95% for the present compounds.
FIG. 2 illustrates the results of GTP induced polymerization and calcium chloride induced depolymerization of tubulin in the presence of taxol and the 2'- and 7-MPA substituted derivatives.

[4] = tested on: UCLA-P3 lung carcinoma cells; assay: XTT dye binding cytotoxicity assay, UCLA-P3; format: cell-based; conditions: Homo sapiens, UCLA P-3, 72 h
Description: as §1, §2

[5] = tested on: SK-N-SH neuroblastoma cells; assay: XTT dye binding cytotoxicity assay, SK-N-SH; format: cell-based; conditions: Homo sapiens, neuroblastoma, 72 h, read-out: IC50
Description: as §1, §2

[6] = tested on: U-2511 CNS cancer cells; assay: XTT dye binding cytotoxicity assay, U-2511; format: cell-based; conditions: Homo sapiens; U-2511, CNS cancer; 72 h; read-out: IC50
Description: as §1, §2

[7] = Plasma stability and prodrug reversion (ethyl acetate extraction, HPLC); conditions: human, plasma
[8] = tested on: Ovcar 3 ovarian carcinoma tumor xenograft
Description: as §3
The tumor model was generated from an ATTC Ovcar 3 carcinoma cell line that was maintained under standard cell proliferation conditions, viz. 37° C., 5% carbon dioxide in sterile air. Each cohort was comprised of eight randomly chosen female athymic nude mice, for a total population size of twenty four. Hemocytometer counted cells, suspended in Hanks medium (Gibco, Grand Island N.Y.) were implanted S.C. (10^6 cells in 0.4 mL per mouse). Solid tumor growth was measured on each third day. Equimolar amounts of the test compounds (1.0 mM, 400 μL) were injected i.p. on days 1, 3, 5, 7, 9, and 11 using the following media:
(.quadrature.): Control, saline in 5× distilled water (D5W) […]

[9] = tested on: PC-3 prostate carcinoma tumor xenograft; conditions: in vivo
Description: as §3, §4, §5, §6, §7

[10] = tested on: SIHA squamous carcinoma cells; assay: XTT dye binding cytotoxicity assay, SIHA; format: cell-based; conditions: Homo sapiens; SIHA, squamous carcinoma; 72 h; read-out: IC50
Description: as §1, §2

[11] = tested on: BT-549 breast carcinoma cells; assay: XTT dye binding cytotoxicity assay, BT-549; format: cell-based; conditions: Homo sapiens; BT-549, breast carcinoma; 72 h; read-out: IC50
Description: as §1, §2

[12] = tested on: HT-29 colon carcinoma cells; assay: XTT dye binding cytotoxicity assay, HT-29; format: cell-based; conditions: Homo sapiens; HT-29, colon carcinoma; 72 h; read-out: IC50
Description: as §1, §2

[13] = In vivo elimination in BALB/C mice; conditions: 24 hours after injection
Description: C-2'-MPA-Taxol (1 mM in 0.9% saline solution, 400 μL) was injected along with tritiated taxol at 32000 cpm into normal BALB/C mice (4 mice each) housed in metabolic cages and the urine and feces were measured periodically in a scintillation counter using Achillea scintillation fluid.
The antitumor activity of the onium salts of taxol were assessed in nude mice bearing tumors of human A-549 lung adenocarcinomas, Ovcar-3 ovarian carcinoma, and PC-3 prostate carcinoma cells. […] FIG. 5 illustrates antiproliferation results for 2'-MPA-3-thiophene-taxol (4) and 2' MPA taxol (2) for the Ovcar-3 human tumor xenograft. […] FIG. 6, summarizes the results for a PC-3, prostate tumor model study. Taxol was compared with both the 2'- and 7-substituted oxonium salts. […] Tritiated taxol and 2' MPA-taxol were used in drug elimination experiments in normal BALB/C mice. In both groups of mice of four animals each, only 4-5% of the administered radioactivity was measured in the combined urine and feces 24 hours after injection.

[14] = tested on: PC-3 prostate carcinoma cells; assay: XTT dye binding cytotoxicity assay, PC-3; format: cell-based; conditions: Homo sapiens, 72 h
Description: as §1, §2

[15] = tested on: tubulin; assay: Tubulin polymerization-depolymerization (microtubule assembly-disassembly) assay; format: biochemical, calf
[16] = Toxicity and survival in vivo (tumor bearing nude mice)
[17] = tested on: 786-0 renal cell carcinoma cells; assay: XTT dye binding cytotoxicity assay, 786-0; format: cell-based; conditions: Homo sapiens; 786-0, renal cell carcinoma; 72 h; read-out: IC50
Description: as §1, §2

[18] = tested on: A549 lung adenocarcinoma tumor xenograft; assay: Human lung adenocarcinoma A549 xenograft in nude mice; conditions: 1.0 mM, 400 μL i.p. days 1, 3, 5, 7, 9, 11
Description: as §3
The tumor model was generated from A549 cell line, an ATTC that was maintained under standard cell proliferation conditions (37° C., 5% carbon dioxide in sterile air). Each cohort was comprised of six randomly chosen female athymic nude mice, for a total population size of twenty four mice. Hemocytometer counted cells, suspended in Hanks mediun (Gibco, Grand Island N.Y.) were implated S.C. (10^6 cells in 0.4 mL per mouse). Solid tumor growth was measured on each third day. Equimolar amounts of the test compounds (1.0 mM, 400 μL) were injected i.p. on days 1, 3, 5, 7, 9, and 11 using the following media:
(Δ): Control, saline in 5× distilled water (5 DW)
(.smallcircle.): Taxol (18.0 mg/kg of animal weight or approximately 1,260 mg/m^2) suspended in Cremaphor/D5W […]

[19] = tested on: Capan 1 pancreas cancer cells; assay: XTT dye binding cytotoxicity assay, Capan 1; format: cell-based; conditions: Homo sapiens; Capan 1, pancreas cancer; 72 h; read-out: IC50
Description: as §1, §2

[20] = tested on: A-549 lung carcinoma cells; assay: XTT dye binding cytotoxicity assay, A-549; format: cell-based; conditions: Homo sapiens, A549; A-549, lung carcinoma; 72 h; read-out: IC50
Description: as §1, §2

[21] = tested on: OVCAR-3 ovarian carcinoma cells; assay: XTT dye binding cytotoxicity assay, OVCAR-3; format: cell-based; conditions: Homo sapiens; OVCAR-3, ovarian carcinoma; 72 h; read-out: IC50
Description: as §1, §2

[22] = tested on: tumor cell lines; assay: Cytotoxicity, summary over tumor cell lines (XTT); format: cell-based, human and murine; conditions: on average
Description: Antiproliferative activities of the onium salts were determined using the XTT dye binding assay. Cells were harvested with trypsin/EDTA (Irvine Scientific), washed, resuspended in the appropriate medium, and counted in a hemocytometer using Trypan Blue to determine viability. […] After 72 hours, XTT binding dye was added and incubation was continued for 4 hours. The inhibition of cell proliferation was quantified using a Molecular Devices Microplate Reader. […] The concentration of drug which inhibited growth of cells by 50% was calculated from duplicated determinations.

Question: For `CC(=O)O[C@H]1C(=O)[C@@]2(C)[C@H]([C@H](OC(=O)c3ccccc3)[C@]3(O)C[C@H](OC(=O)[C@H](Oc4cccc[n+]4C)[C@@H](NC(=O)c4ccccc4)c4ccccc4)C(C)=C1C3(C)C)[C@]1(OC(C)=O)CO[C@@H]1C[C@@H]2O` [Compound 2], which “antitumor activity, PC-3” value ([1]; 1.0 mM, 400 μL i.p., established tumors) is on record?
Answer: regression of established tumors

Question: And the “complete remission with no palpable tumor mass, PC-3” value ([1]; at termination, after 24 days)?
Answer: 5 out of 8 animals

Question: And the IC50 [2]?
Answer: 87.9 nM

Question: What about the storage stability ([3]; 1-2% Tween #80 or Tween #20 with or without ethyl alcohol) of the same compound?
Answer: stable and may stored without significant loss

Question: And the “stability under the assembly-disassembly conditions” value ([3]; HPLC analysis)?
Answer: completely stable

Question: What about the IC50 [4] of the same compound?
Answer: 2.44 nM

Question: And the IC50 [5]?
Answer: 3.19 nM

Question: And the IC50 [6]?
Answer: 860 nM

Question: What about the half-life [7] of the same compound?
Answer: 2.4 min

Question: And the recovery [7]?
Answer: 21%

Question: And the “tumor growth inhibition, Ovcar-3” value ([8]; 1.0 mM, 400 μL i.p. days 1, 3, 5, 7, 9, 11)?
Answer: complete inhibition of tumor growth

Question: What about the “survival of animals, Ovcar-3” value ([8]; in vivo) of the same compound?
Answer: 100%

Question: What about the “mice surviving treatment, PC-3” value [9] of the same compound?
Answer: all of the mice given either the 2'- or 7-isomers survived

Question: And the IC50 [10]?
Answer: 3.78 nM

Question: And the IC50 [11]?
Answer: 5.72 nM

Question: What about the IC50 [12] of the same compound?
Answer: 1.94 nM

Question: What about the “administered radioactivity in the combined urine and feces” value [13] of the same compound?
Answer: 4-5%

Question: And the IC50 [14]?
Answer: 6.47 nM

Question: What about the “tubulin binding in words” value [15] of the same compound?
Answer: no tubulin binding

Question: What about the “reversal to tubulin (calcium induced depolymerization)” value ([15]; CaCl2, 10^-6 M drug) of the same compound?
Answer: about 70%

Question: And the Toxicity ([16]; Table II, in vivo)?
Answer: low

Question: And the “% survival” value ([16]; at end of experiments)?
Answer: 100%

Question: What about the “in vivo tolerance / toxicity in words” value ([16]; nude mice) of the same compound?
Answer: well tolerated, showing no visible toxic side effects and no significant weight loss

Question: What about the IC50 [17] of the same compound?
Answer: 27.4 nM

Question: What about the “tumor growth inhibition, A549” value [18] of the same compound?
Answer: inhibited tumor growth nearly completely

Question: And the IC50 [19]?
Answer: 5.7 nM

Question: And the IC50 [20]?
Answer: 152 nM

Question: What about the IC50 [21] of the same compound?
Answer: 7.49 nM

Question: What about the “cytotoxicity relative to the C-7-isomer (3)” value [22] of the same compound?
Answer: about 10 fold
